Assays:
[1] = tested on: C57/BL6 and MIF−/− mice, LPS; assay: Non-lethal endotoxemia, serum TNFα; type: in vivo, mouse; conditions: 90 minutes post-LPS, 20 mg/kg i.p.
Source text: Animal Experiments: The Institutional Animal Care and Use Committee of the Feinstein Institute for Medical Research reviewed and approved all animal protocols prior to initiation of experiments. Male BALB/c mice were purchased from the Jackson Laboratory (Bar Harbor, Me.) and used for endotoxemia experiments at ages 8-10 weeks. MIF KO animals were maintained on a C57/BL6 NCr background from Charles River Laboratories (Stone Ridge, N.Y.); these animals were used alongside matched wild-type animals for endotoxemia experiments at ages 8-12 weeks.
Endotoxemia: Endotoxemia was induced by intraperitoneal injection of LPS from E. coli O111:B4 (Sigma). […] Blood was collected by cardiac puncture and allowed to clot 20 minutes at room temperature and 20 minutes at 4° C.; sera were isolated by centrifugation at 300×g for 10 minutes and stored at −20° C. for further analysis by TNFα ELISA (1:3 dilution).

[2] = tested on: adherence-purified human peripheral blood monocytes; assay: Glucocorticoid synergy in vitro, adherence-purified monocytes; type: cell-based; conditions: LPS
Procedure: Glucocorticoid Synergy in vitro: The methods of Roger et al. and Kerschbaumer et al. were adapted for these experiments (17, 21). […] Cell-free supernatants were collected and analyzed immediately with a murine TNFα ELISA at a 1:10 dilution. THP-1 cells were plated at a density of 2×10^5 cells/well in a 96-well plate and used the same day with the same treatment conditions as RAW 264.7 cells, except that THP-1 cells were incubated with LPS for 16 hours prior to isolation of cell-free supernatants. Supernatants were analyzed using a human TNFα ELISA at a 1:10 dilution. Human peripheral blood mononuclear cells isolated by adherence (described above) were plated at a density of 2×10^5 cells/well in a 96-well plate and used the same day with the same treatment conditions as THP-1 cells. Supernatants were analyzed using a human TNFα ELISA at a 1:20 dilution. […] Cells were treated under the same conditions as THP-1 cells and supernatants were analyzed using a human TNFα ELISA at a 1:10 dilution.
For all above experiments, cytotoxicity was assessed using an MTT assay (1-2 hour incorporation); no significant cytotoxicity effects were observed under any treatment conditions unless otherwise noted.

[3] = early communications; cited from earlier work
[4] = tested on: LPS-treated human peripheral blood monocytes; assay: LPS-induced cytokine release in human monocytes enriched by negative selection; type: cell-based; conditions: for TNFα release: concentrations up to 50 μM
Source text: Preparation of Peripheral Blood Cells: Human peripheral blood was collected in sodium heparin (IRB#12-200A) or obtained as Leukopaks from New York Blood Center (New York, N.Y.). Mononuclear cells were isolated by density gradient centrifugation in Ficoll-Paque Plus (GE Healthcare; Pittsburgh, Pa.). Monocytes were either purified by two-hour adherence to Primaria culture plates (Corning Life Sciences; Corning, N.Y.) or enriched by negative magnetic selection using Monocyte Isolation Kit II (Miltenyi Biotech; Auburn, Calif.). All monocyte preps were cultured in RPMI supplemented with 10% human AB serum, 100 units/mL penicillin-streptomycin, and 2 mM L-glutamine and used within 24 hours. Macrophages were differentiated from adherence-purified monocytes by incubation with 10 ng/mL human M-CSF (Sigma) for seven days, with media replenishment performed on days 3 and 5.
Cytokine Production Assays: For LPS-induced cytokine release, negative selection-enriched monocytes (human) or mixed peripheral blood leukocytes (murine) were plated at a density of 2×10^5 cells/mL in 96-well plates. Cells were pre-treated with MIF inhibitors in 0.1% DMSO (final) for 1 hour before stimulation with LPS from E. coli R515 (Axxora; Farmingdale, N.Y.): 24 hours for human cells, 5 hours for murine cells. Cell-free supernatants were collected and stored at −80° C. for cytokine determinations by ELISA; 1:2 dilutions were used for TNFα and 1:3 dilutions for IL-8 and MCP-1.

[5] = tested on: neonates pups with CDH; assay: Nitrofen congenital diaphragmatic hernia (CDH) model, neonate pups; type: in vivo; conditions: vs Nitrofen group; for VGEF / eNOS phosphorylation: P<0.05
[6] = tested on: LPS-stimulated human peripheral blood monocytes; conditions: cited from earlier work
[7] = 1 h pre-treatment, 1 ng/mL LPS 24 h

In the case of `CS(=O)(=O)Nc1cc2occ(NC=O)c(=O)c2cc1Oc1ccccc1` [Compound T-614, 3-formylamino-7-methylsulfonylamino-6-phenoxy-4H-1-benzopyran-4-one], the “serum TNFα, MIF−/− mice” value [1] is given as “no significant effect”, the “concentration at which TNFα is suppressed (as low as)” value [2] is given as ≤ 10 µM and the oral bioavailability [3] is given as “orally bioavailable”.
In the case of `N[C@H](Cc1cc(I)c(Oc2cc(I)c(O)c(I)c2)c(I)c1)C(=O)O` [d-T4], the IL-8 release [4, 7] is reported as “moderate suppression” and the TNFα release [4, 7] is reported as “almost completely spared”.
For `COC(=O)CC1CC(c2ccc(O)cc2)=NO1` (centres unmarked) [ISO-1], the “Arginase II” value [5] was “significantly lower”, the VGEF [5] was “significant increase” and the eNOS phosphorylation [5] was “significant increase”. The TNFα release [4, 7] was “moderate suppression”.
In the case of `O=C(O/N=C/c1ccc(O)cc1)C1CCCCC1` [OXIM-11], the TNFα release [4, 7] is reported as “almost completely spared” and the “suppression of the cytokines analyzed (TNFα, MCP-1, IL-8)” value ([4]; LPS-treated monocytes) is reported as “minimal suppression”.
For `COc1ccc2c(c1)c(CC(=O)O)c(C)n2C(=O)c1ccc(Cl)cc1` [indomethacin], the IL-1β intracellular accumulation [6] is listed as “increases intracellular accumulation” and the IL-1β release [6] is listed as “inhibits release”.
In the case of `Oc1ccc(-c2cnc3ccccn23)cc1O` [Compound K-664.1], the MCP-1 release [4, 7] is reported as “stronger suppressors of MCP-1 than TNFα” and the TNFα release [4, 7] is reported as “moderate suppression”.
In the case of `CC(C)(C)COC(=O)CC1CC(c2ccc(O)c(F)c2)=NO1` (centres unmarked) [ISO-92], the “Arginase II” value [5] is reported as “significantly lower”, the VGEF [5] is reported as “significant increase” and the eNOS phosphorylation [5] is reported as “significant increase”. The MCP-1 release [4, 7] was “stronger suppressors of MCP-1 than TNFα” and the TNFα release [4, 7] was “almost completely spared”.

— patent US20190262307A1, “IGURATIMOD AS AN MIF INHIBITOR” (THE FEINSTEIN INSTITUTE FOR MEDICAL RESEARCH, priority 2016, published 2019)
